Laboratory results as given in PMC7496931, “Activation of Sirtuin 2 Inhibitors Employing Photoswitchable Geometry and Aqueous Solubility” (Chemmedchem, 2020).

Experiments:
[1] = UV/Vis spectra and half-life of thermal Z→E isomerization; format: physicochemical; parameters: k of thermal Z→E isomerization (non-linear regression): unit not given here; settings: for λΔ/max absorption maximum at thermal equilibrium: 50 μM in DMSO/assay buffer; for k of thermal Z→E isomerization (non-linear regression): 50 μM
Experimental: (§1) Photochemistry: All photoisomerization experiments were conducted under ruby light of 630 nm and total exclusion of daylight. Illumination was executed using a Bio‐Link 254 Crosslinker from Vilber‐Lourmat equipped with six Vilber‐Lourmat T8‐L lamps (8 W, 365 nm). Visible light radiation of 630 nm (ruby) and 452 nm (blue) was derived from a Paulmann FlexLED 3D strip. All compounds were irradiated in solution using spectrophotometric grade solvents. Photoisomerization and UV/Vis‐spectra measurement was conducted in quartz glass cuvettes (114‐QS, Hellma Analytics) at room temperature.
UV/Vis Spectra and Half-Life of Thermal Isomerization
The half-life of the thermal Z→E isomerization after 5 minutes of 365 nm irradiation was determined by UV/Vis-spectroscopy. Therefore, solutions of the respective compounds (50 µM) in 5%, 50% or 90% DMSO in enzyme assay buffer (v/v) were prepared. An initial spectrum of the thermal equilibrium was recorded. After 5 minutes of irradiation with 365 nm the increase of absorbance at the thermal equilibrium maximum (λ∆max) was recorded as exemplified by compound 15c (Figure S3). Absorbance at λ = λ ∆max was plotted as a function of time. Non-linear regression yielded the half-life of the thermal Z→E isomerization (Table S1). For extrapolation of the reaction kinetics, the plateau value was set to the initial absorbance at λ=λ∆max. The following equation was used for non-linear regression:
y = (y0 − Plateau)e−kx + Plateau
Figure S3: Left: UV-Vis spectrum of 15c (50 µM) in assay buffer (5% DMSO, v/v) at the thermal equilibrium (∆) and the photostationary state (PSS) after UV irradiation (365 nm). Right:
Absorbance of 15c (50 µm) in assay buffer (5% DMSO, v/v) at λ∆max = 328 nm after 5 minutes of UV (365 nm) irradiation.
(1 picture or pasted object on this page, not shown here)

[2] = Photoisomer distribution (PSD) by HPLC-ELSD; format: physicochemical; settings: for E/Z [%] PSD @ 365 nm / PSD after 365 nm radiation, share of the Z isomer: after 365 nm irradiation; for E/Z [%] PSD @ 365 nm / E/Z [%] PSD @ 452 nm: HPLC in MeOH/water, ELSD; for E/Z [%] PSD @ 452 nm: after 452 nm irradiation
Experimental: as §1

[3] = 50 % DMSO (v/v) in assay buffer
[4] = 90 % DMSO (v/v) in assay buffer

Row | SMILES | λΔ/max absorption maximum at thermal equilibrium ([1]; 5 % DMSO (v/v)) [nm] | k of thermal Z→E isomerization (non-linear regression) ([1]; 5 % DMSO (v/v) in assay buffer) | E/Z [%] PSD @ 365 nm [2] | E/Z [%] PSD @ 452 nm [2] | λΔ/max absorption maximum at thermal equilibrium ([1]; 50 % DMSO (v/v)) [nm] | k of thermal Z→E isomerization (non-linear regression) [1, 3] | λΔ/max absorption maximum at thermal equilibrium ([1]; 90 % DMSO (v/v)) [nm] | k of thermal Z→E isomerization (non-linear regression) [1, 4] | PSD after 365 nm radiation, share of the Z isomer [2]
1 | CC(=O)Nc1c(C)cc(/N=N/c2cncc(C(N)=O)c2)cc1C [9 a] | 329 | 0.1176 |  |  |  |  |  |  | 
2 | CCCC(=O)Nc1c(C)cc(/N=N/c2cncc(C(N)=O)c2)cc1C [9 b] | 332 | 0.08608 | 10/90 | 86/14 |  |  |  |  | 
3 | CCCCCC(=O)Nc1c(C)cc(/N=N/c2cncc(C(N)=O)c2)cc1C [9 c] |  |  | 9/91 | 87/13 | 339 | 0.043 |  |  | 
4 | CCCCCCCC(=O)Nc1c(C)cc(/N=N/c2cncc(C(N)=O)c2)cc1C [9 d] |  |  | 9/91 | 88/12 |  |  | 345 | 0.03293 | 
5 | CCCCCCCCCC(=O)Nc1c(C)cc(/N=N/c2cncc(C(N)=O)c2)cc1C [9 e] |  |  | 10/90 | 90/10 |  |  | 344 | 0.03173 | 
6 | CCCCCCCCCCCC(=O)Nc1c(C)cc(/N=N/c2cncc(C(N)=O)c2)cc1C [9 f] |  |  | 10/90 | 91/9 |  |  | 346 | 0.03286 | 
7 | Cc1cc(/N=N/c2cncc(C(N)=O)c2)cc(C)c1NC(=O)c1ccc(F)cc1 [9 i] |  |  | 12/88 | 91/9 | 337 | 1.193 |  |  | 
8 | Cc1cc(/N=N/c2cncc(C(N)=O)c2)cc(C)c1NC(=O)C12CC3CC(CC(C3)C1)C2 [9 k] |  |  | 14/86 | 89/11 | 339 | 0.1022 |  |  | 
9 | CC(C)(C)OC(=O)c1ccc(/N=N/c2cncc(C(N)=O)c2)cc1 [15 a] |  |  | 31/69 | 94/6 | 325 | 0.003905 |  |  | 60–70%
10 | CC(C)(C)OC(=O)Cc1ccc(/N=N/c2cncc(C(N)=O)c2)cc1 [15 b] |  |  | 6/94 | 90/10 | 332 | 0.02959 |  |  | 
11 | NC(=O)c1cncc(/N=N/c2ccc(Br)cc2)c1 [15 d] | 332 | 0.003156 | 9/91 | 91/9 |  |  |  |  | 
12 | CCCCNC(=O)c1ccc(/N=N/c2cncc(C(N)=O)c2)cc1 [15 e] |  |  | 40/60 | 89/11 | 326 | 0.002728 |  |  | 60–70%
13 | NC(=O)c1cncc(/N=N/c2ccc(C#CCCCCO)cc2)c1 [15 g] |  |  | 25/75 | 89/11 | 355 | 0.0139 |  |  | 
14 | C#Cc1ccc(/N=N/c2cccc(COc3cncc(C(N)=O)c3)c2)cc1 [20 c] |  |  |  |  | 340 |  |  |  | 
